Source: patent US20120283293A1, “Methods of neuroprotection involving Prostaglandin E2 EP4 (PGE2 EP4) receptor activation” (The Board of Trustees of the Leland Stanford Junior …, priority 2011, published 2012)

System: microglia isolated from adult mouse brain
Experiment: inflammatory gene expression in microglia isolated from adult brain of LPS-treated mice
Assay type: in vivo
Details: 2-3 mo C57B6 male mice, LPS 5 mg/kg i.p., AE1-329 0.3 mg/kg subcutaneously, microglia harvested at 6 hours
Method: qPCR was carried out as previously described (Liang et al., 2008). Briefly, total RNA was isolated using Trizol reagent (Invitrogen, Carlsbad, Calif.), treated with DNAse (Invitrogen), and the reaction was terminated by heating at 65° C. for 10 minutes. First strand cDNA synthesis was performed with 1.5 μg of total RNA, 4 units of Omniscript enzyme (Qiagen, Valencia, Calif.) and 0.25 μg of random primer in a reaction volume of 20 μl at 37° C. for 1 hour. Reverse transcribed cDNA was diluted 1:20 in RNAse free ddH2O for subsequent RT-PCR. The mRNA level for each target gene was quantified by SYBR Green-based qPCR using the QuantiTect SYBR Green PCR kit (Qiagen). Melting curve analysis confirmed the specificity of each reaction. […] Quantification was performed using the standard curve method. […]
Adult microglial cell isolation was carried according to the methods of Cardona et al., 2006, and cells were processed for RNA isolation or flow cytometry. […] Purity of the microglial preparation was determined in separate experiments by labeling ˜10^5 cells/ml with phycoerythrin (PE)-conjugated hamster anti-mouse CD11b or IgG isotype control (1:100; eBioscience, San Diego, Calif.) for 30 minutes on ice. […] Flow cytometry was performed on a LSR II (BD Biosciences), and data analyzed with FlowJo 7.2.2 software. […]

COCc1ccccc1CC[C@H](O)/C=C/[C@H]1[C@H](O)CC(=O)[C@@H]1SCCCSCC(=O)O [AE1-329]
LPS-induced microglial COX-2, iNOS, IL-6, TNF-α and gp91phox expression: significantly reduced
